Measured values: patent US8802597B2, “Herbicidal pyrimidines” (E I du Pont de Nemours and Company, priority 2003, dated 2014)

Experiments:
Experiment in all cases: Test A pre/postemergence
Assay type in all cases: in vivo
[1] = tested on: redroot pigweed (Amaranthus retroflexus)
Summary of the method: (§1)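 Greenhouse herbicide test with preemergence directed soil spray and postemergence foliar spray at the 1- to 2-leaf stage; visual control rating 0–100 versus untreated at ~10 days.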

[2] = tested on: giant foxtail (Setaria faberi)
Summary of the method: as §1

[3] = tested on: velvetleaf (Abutilon theophrasti)
Summary of the method: as §1

[4] = tested on: crabgrass (Digitaria sanguinalis)
Summary of the method: as §1

[5] = tested on: morningglory (Ipomoea spp.)
Summary of the method: as §1

[6] = tested on: barnyardgrass (Echinochloa crus-galli)
Summary of the method: as §1

[7] = Postemergence, 125 g ai/ha, 0 to 100 scale (0 no effect, 100 complete control)
[8] = Postemergence, 500 g ai/ha, 0 to 100 scale (0 no effect, 100 complete control)
[9] = Preemergence, 125 g ai/ha, 0 to 100 scale where 0 is no effect and 100 is complete control, approximately ten days
[10] = Preemergence, 500 g ai/ha, 0 to 100 scale where 0 is no effect and 100 is complete control, approximately ten days

CC(C)N.Nc1nc(C2CC2)nc(C(=O)O)c1Cl [Compound 144]
Plant response rating, Pigweed [1, 7]: 85 | Plant response rating, Pigweed [1, 8]: 100 | Plant response rating, Pigweed [1, 9]: 75 | Plant response rating, Pigweed [1, 10]: 85 | Plant response rating, Foxtail, Giant [2, 7]: 70 | Plant response rating, Foxtail, Giant [2, 8]: 80 | Plant response rating, Foxtail, Giant [2, 9]: 35 | Plant response rating, Foxtail, Giant [2, 10]: 80 | Plant response rating, Velvetleaf [3, 7]: 95 | Plant response rating, Velvetleaf [3, 8]: 100 | Plant response rating, Velvetleaf [3, 9]: 75 | Plant response rating, Velvetleaf [3, 10]: 85 | Plant response rating, Crabgrass [4, 7]: 40 | Plant response rating, Crabgrass [4, 8]: 80 | Plant response rating, Crabgrass [4, 9]: 75 | Plant response rating, Crabgrass [4, 10]: 95 | Plant response rating, Morningglory [5, 7]: 85 | Plant response rating, Morningglory [5, 8]: 95 | Plant response rating, Morningglory [5, 9]: 85 | Plant response rating, Morningglory [5, 10]: 95 | Plant response rating, Barnyardgrass [6, 7]: 60 | Plant response rating, Barnyardgrass [6, 8]: 90 | Plant response rating, Barnyardgrass [6, 9]: 65 | Plant response rating, Barnyardgrass [6, 10]: 80
